# From PubChem BioAssay (NCI)
#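 In this assay, cells in 96-well plates receive the compound at five concentrations for 48 hours. Endpoints are linearly interpolated between the surrounding concentrations. Abbreviation: GI50, concentration required for 50% inhibition of growth. The concentration for full growth arrest is given as TGI.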
# Legend:
# Assay in all cases: NCI tumour cell line growth inhibition, 48 h
# [1] = tested on: 786-0 renal
# [2] = tested on: A498 renal
# [3] = tested on: A549 NSCLC
# [4] = tested on: ACHN renal
# [5] = tested on: CAKI-1 renal
# [6] = tested on: COLO 205 colon
# [7] = tested on: DU-145 prostate
# [8] = tested on: EKVX NSCLC
# [9] = tested on: HCC-2998 colon
# [10] = tested on: HCT-116 colon
# [11] = tested on: HCT-15 colon
# [12] = tested on: HOP-62 NSCLC
# [13] = tested on: HOP-92 NSCLC
# [14] = tested on: HS 578T breast
# [15] = tested on: HT29 colon
# [16] = tested on: IGROV1 ovarian
# [17] = tested on: KM12 colon
# [18] = tested on: LOX IMVI melanoma
# [19] = tested on: M14 melanoma
# [20] = tested on: MALME-3M melanoma
# [21] = tested on: MCF7 breast
# [22] = tested on: MDA-MB-231 breast
# [23] = tested on: MDA-MB-435
# [24] = tested on: NCI-H226 lung
# [25] = tested on: NCI-H23 lung
# [26] = tested on: NCI-H460 lung
# [27] = tested on: NCI-H522 lung
# [28] = tested on: NCI/ADR-RES ovarian
# [29] = tested on: OVCAR-3 ovarian
# [30] = tested on: OVCAR-4 ovarian
# [31] = tested on: OVCAR-5 ovarian
# [32] = tested on: OVCAR-8 ovarian
# [33] = tested on: PC-3 prostate
# [34] = tested on: RPMI-8226 leukemia
# [35] = tested on: RXF 393 renal
# [36] = tested on: SF-268 CNS
# [37] = tested on: SF-295 CNS
# [38] = tested on: SF-539 CNS
# [39] = tested on: SK-MEL-2 melanoma
# [40] = tested on: SK-MEL-28 melanoma
# [41] = tested on: SK-MEL-5 melanoma
# [42] = tested on: SK-OV-3 ovarian
# [43] = tested on: SN12C renal
# [44] = tested on: SNB-19 CNS
# [45] = tested on: SNB-75 CNS
# [46] = tested on: T-47D breast
# [47] = tested on: TK-10 renal
# [48] = tested on: U251 CNS
# [49] = tested on: UACC-257 melanoma
# [50] = tested on: UACC-62 melanoma
# [51] = tested on: UO-31 renal
smiles,measurement,setting,value
COc1ccc2c(c1)CC[C@@H]1[C@@H]2CC[C@@]2(C)[C@H]1CC1(CCCCC1)[C@@H]2O,GI50,[1],3.81 µM
same,TGI,[1],14.7 µM
same,GI50,[2],16.7 µM
same,TGI,[2],32 µM
same,GI50,[3],5.58 µM
same,TGI,[3],26.8 µM
same,GI50,[4],14.7 µM
same,TGI,[4],28.2 µM
same,GI50,[5],18.2 µM
same,TGI,[5],33.9 µM
same,GI50,[6],7.35 µM
same,TGI,[6],26 µM
same,GI50,[7],15.2 µM
same,TGI,[7],29.3 µM
same,GI50,[8],18.3 µM
same,TGI,[8],35.5 µM
same,GI50,[9],14.1 µM
same,TGI,[9],28.5 µM
same,GI50,[10],12.3 µM
same,TGI,[10],26.4 µM
same,GI50,[11],2.59 µM
same,TGI,[11],10.2 µM
same,GI50,[12],18.3 µM
same,TGI,[12],34.3 µM
same,GI50,[13],16 µM
same,TGI,[13],33 µM
same,GI50,[14],3.59 µM
same,TGI,[14],10.9 µM
same,GI50,[15],1.81 µM
same,TGI,[15],4.39 µM
same,GI50,[16],30.9 µM
same,TGI,[16],80.7 µM
same,GI50,[17],7.91 µM
same,TGI,[17],27.3 µM
same,GI50,[18],7.28 µM
same,TGI,[18],20.9 µM
same,GI50,[19],13.8 µM
same,TGI,[19],31.4 µM
same,GI50,[20],18.8 µM
same,TGI,[20],36.3 µM
same,GI50,[21],18.4 µM
same,TGI,[21],37.5 µM
same,GI50,[22],12.9 µM
same,TGI,[22],32.8 µM
same,GI50,[23],16.5 µM
same,TGI,[23],33.8 µM
same,GI50,[24],20.2 µM
same,TGI,[24],44.9 µM
same,GI50,[25],18.6 µM
same,TGI,[25],35.9 µM
same,GI50,[26],3.82 µM
same,TGI,[26],15.4 µM
same,GI50,[27],17.9 µM
same,TGI,[27],36.6 µM
same,GI50,[28],14.8 µM
same,TGI,[28],30.7 µM
same,GI50,[29],15.1 µM
same,TGI,[29],31.1 µM
same,GI50,[30],13.9 µM
same,TGI,[30],28.7 µM
same,GI50,[31],13.1 µM
same,TGI,[31],28.3 µM
same,GI50,[32],19 µM
same,TGI,[32],41.5 µM
same,GI50,[33],7.93 µM
same,TGI,[33],21.7 µM
same,GI50,[34],2.81 µM
same,TGI,[34],9.35 µM
same,GI50,[35],4.68 µM
same,TGI,[35],29.2 µM
same,GI50,[36],12 µM
same,TGI,[36],26.6 µM
same,GI50,[37],9.05 µM
same,TGI,[37],23.1 µM
same,GI50,[38],4.22 µM
same,TGI,[38],16.6 µM
same,GI50,[39],20.4 µM
same,TGI,[39],41.6 µM
same,GI50,[40],14.9 µM
same,TGI,[40],29.5 µM
same,GI50,[41],8.06 µM
same,TGI,[41],20.4 µM
same,GI50,[42],21.6 µM
same,TGI,[42],41.3 µM
same,GI50,[43],20.4 µM
same,TGI,[43],39 µM
same,GI50,[44],18 µM
same,TGI,[44],40.7 µM
same,GI50,[45],16.4 µM
same,TGI,[45],35.1 µM
same,GI50,[46],15.7 µM
same,TGI,[46],39.7 µM
same,GI50,[47],12.2 µM
same,TGI,[47],31.8 µM
same,GI50,[48],10 µM
same,TGI,[48],24.4 µM
same,GI50,[49],23.6 µM
same,TGI,[49],47.2 µM
same,GI50,[50],16.4 µM
same,TGI,[50],31.6 µM
same,GI50,[51],16.8 µM
same,TGI,[51],47.2 µM
